Reference: US8574831B2, “Mutational profiles in HIV-1 reverse transcriptase correlated with phenotypic drug resistance” (Virco N.V., priority 2000, dated 2013)

Tested on: HIV with mutations in the HIV protease sequence
Test: Phenotypic fold resistance to protease inhibitors, protease mutations 84A/84L/84C/54M/54L/54V in a background (Examples 8-13)
Assay type: cell-based, HIV-1
Description: As is the case with the genotyping assays, the recombinant virus assay starts with the amplification of viral target sequences by means of PCR. The amplicons are incorporated into a proviral laboratory clone with sequences homologous to those present in the amplicon deleted. This generates a stock of chimeric viruses. The viruses are tested for their ability to grow in the presence of different concentrations of drugs. Results are obtained by calculating IC50 values for each inhibitor and by reporting the results as IC50 values, expressed in μM concentrations, or by computing the ratio of the IC50 values found for the chimeric virus to the IC50 values found for a wild type susceptible laboratory virus tested in parallel. In the latter case, resistance is expressed as “fold-resistance” compared to a wild-type susceptible HIV-1 strain. In order to meet the need for high-volume testing and a short turn-around time for an individual test, the latest generation of phenotyping assays has undergone further modifications. The use of reporter gene systems for susceptibility testing allows the implementation of laboratory automation and standardization. See Pauwels, et al., J. Virol. Methods 20, 309-321 (1998); Paulous, S., et al., International Workshop on HIV Drug Resistance, Treatment Strategies and Eradication, St. Petersburg, Fla., USA. Abstr. 46 (1997); and Deeks, S. G., et al., 2nd International Workshop on HIV Drug Resistance and Treatment Strategies, Lake Maggiore, Italy. Abstr. 53 (1998).
The ANTIVIROGRAM® assay (Virco) (WO 97/27480) is based on homologous recombination of patient derived HIV-1 gag/PR/RT sequences into a proviral HIV-1 clone correspondingly deleted for the gag/PR/RT sequences. See Pauwels, et al., J. Virol. Methods 20, 309-321 (1998). A similar assay (Phenosense ViroLogic) is based on enzymatic ligation of patient-derived PR/RT sequences into a correspondingly deleted proviral vector carrying an indicator gene, luciferase, inserted in the deleted HIV-1 envelope gene. See Deeks, S. G., et al., 2nd International Workshop on HIV Drug Resistance and Treatment Strategies, Lake Maggiore, Italy. Abstr. 53 (1998). Hertogs et al. Antimicrob. Agents Chemother. 44(3) 568-573 (2000) the disclosures of which are herein incorporated by reference.
The methods of monitoring HIV-1 drug resistance, may also be used in combination with phenotypic drug resistance testing of viral isolates. For example, in one embodiment, a phenotypic test is utilized that is based upon the construction of chimeric HIV-1 strains composed of the protease (PR) and reverse transcriptase (RT) gene sequences which are isolated and amplified from the patient viral RNA. These strains may subsequently be recombined inside CD4+ T cells with a standard laboratory isogenic (HXB2) HIV-1 DNA construct from which the PR/RT gene sequences were deleted. The recombinant strains may then be grown in the presence of the above-mentioned antiviral drugs and the susceptibility of the viral isolates may be expressed as fold-change value of the IC50 of the drug on the patient isolates over the IC50 of the drug on a wild-type laboratory reference strain.

CC(C)CN(C[C@@H](O)[C@H](Cc1ccccc1)NC(=O)O[C@H]1CCOC1)S(=O)(=O)c1ccc(N)cc1 [Amprenavir, amprenavir]
mean fold increase in resistance (Table 9 #1, protease genotype WT): 1 fold
mean fold increase in resistance (Table 9 #2, protease genotype 10I): 1.1 fold
mean fold increase in resistance (Table 9 #3, protease genotype 46I): 1.2 fold
mean fold increase in resistance (Table 9 #4, protease genotype 46I + 84V): 2.3 fold
mean fold increase in resistance (Table 9 #5, protease genotype 46I + 84A): 7.7 fold
mean fold increase in resistance (Table 9 #6, protease genotype 10I + 46I): 5.6 fold
mean fold increase in resistance (Table 9 #7, protease genotype 10I + 46I + 84V): 4.5 fold
mean fold increase in resistance (Table 9 #8, protease genotype 10I + 46I + 84A): 17 fold
mean fold increase in resistance (Table 9 #9, protease genotype 10L/I + 46I + 84A): 24.9 fold
mean fold increase in resistance (Table 9 #10, protease genotype 10I + 46I + 84A): 11 fold
mean fold increase in resistance (Table 9 #11, protease genotype 46I + 71V): 2.2 fold
mean fold increase in resistance (Table 9 #12, protease genotype 46I + 71V + 84V/I): 2.2 fold
mean fold increase in resistance (Table 9 #13, protease genotype 46I + 71V + 84A): 23 fold
mean fold increase in resistance (Table 9 #14, protease genotype 10F + 46I + 71V): 4.2 fold
mean fold increase in resistance (Table 9 #15, protease genotype 10I + 46I + 71V + 84V): 17.8 fold
mean fold increase in resistance (Table 9 #16, protease genotype 10I + 46I + 71V + 84A): 15.2 fold
mean fold increase in resistance (Table 9 #17, protease genotype 10V + 46I + 71T + 84A): 39.8 fold
mean fold increase in resistance (Table 9 #18, protease genotype 10I + 46I + 71V + 77I): 0.9 fold
mean fold increase in resistance (Table 9 #19, protease genotype 10I + 46I + 71V + 77I + 84V): 1.4 fold
mean fold increase in resistance (Table 9 #20, protease genotype 10I + 46I + 71V + 77I + 84A): 15 fold
mean fold increase in resistance (Table 9 #21, protease genotype 10I + 33L/I + 46I + 71V + 77V/I + 84A): 10.9 fold
mean fold increase in resistance (Table 10 #1, protease genotype 10I + 36I + 71V): 1.0 fold
mean fold increase in resistance (Table 10 #2, protease genotype 10I + 36I + 71I + 84V): 1.1 fold
mean fold increase in resistance (Table 10 #3, protease genotype 10I + 36I + 71I + 84L): 0.3 fold
mean fold increase in resistance (Table 11 #1, protease genotype WT): 1.0 fold
mean fold increase in resistance (Table 11 #2, protease genotype 84V): 2.0 fold
mean fold increase in resistance (Table 11 #3, protease genotype 84C): 5.9 fold
mean fold increase in resistance (Table 11 #4, protease genotype 10I): 1.1 fold
mean fold increase in resistance (Table 11 #5, protease genotype 10I + 84V): 1.2 fold
mean fold increase in resistance (Table 11 #6, protease genotype 10I + 84C): 3.4 fold
mean fold increase in resistance (Table 11 #7, protease genotype 77I): 0.6 fold
mean fold increase in resistance (Table 11 #8, protease genotype 77I + 84V): 3.3 fold
mean fold increase in resistance (Table 11 #9, protease genotype 77I + 84C): 2.2 fold
mean fold increase in resistance (Table 11 #10, protease genotype 77I + 84C): 4.9 fold
mean fold increase in resistance (Table 11 #11, protease genotype 10I + 24I + 36I + 46I + 71V + 84C): 12.8 fold
Fold change in IC50 (Table 12, V19263, genotype 77I): 0.6 fold
Fold change in IC50 (Table 12, V20160, genotype WT): 1.0 fold
Fold change in IC50 (Table 12, V021667, genotype 10I): 1.1 fold
Fold change in IC50 (Table 12, V030496, genotype 10I + 77I): 0.5 fold
Fold change in IC50 (Table 12, V048869, genotype 10I + 54M + 77I + 90M): 9.3 fold
Fold change in IC50 (Table 12, V048872, genotype 33F + 54M + 77I + 90M): 30.3 fold
Fold change in IC50 (Table 12, V048873, genotype 33F + 54M + 77I + 90M): 37.5 fold
Fold change in IC50 (Table 12, V048877, genotype 10I + 33F + 77I + 90M): 7.9 fold
Fold change in IC50 (Table 12, V048878, genotype 10I + 33F + 54M + 71V + 77I + 90M): 13.7 fold
Fold change in IC50 (Table 12, V048879, genotype 10I + 33F + 54M + 71V + 77I + 90M): 14.1 fold
Fold change in IC50 (Table 12, V048880, genotype 10I + 33F + 77I + 90M): 3.8 fold
Fold change in IC50 (Table 12, V052940, genotype 71V): 0.3 fold
Fold change in IC50 (Table 12, V052942, genotype 10I + 71V): 0.5 fold
Fold change in IC50 (Table 12, V052943, genotype 10I + 90M): 0.4 fold
Fold change in IC50 (Table 12, V052944, genotype 10I + 90M): 0.7 fold
Fold change in IC50 (Table 12, V052945, genotype 77I + 90M): 0.3 fold
Fold change in IC50 (Table 12, V052946, genotype 71V + 90M): 0.5 fold
Fold change in IC50 (Table 12, V052947, genotype 10I + 77I + 90M): 1.2 fold
Fold change in IC50 (Table 12, V052948, genotype 10I + 71V + 90M): 2.0 fold
Fold change in IC50 (Table 12, V052949, genotype 10I + 71V + 77I + 90M): 0.6 fold
Fold change in IC50 (Table 12, V052950, genotype 33F): 0.7 fold
Fold change in IC50 (Table 12, V052951, genotype 33F + 77I): 0.3 fold
Fold change in IC50 (Table 12, V052953, genotype 10I + 33F + 77I): 1.5 fold
Fold change in IC50 (Table 12, V052954, genotype 33F + 77I + 90M): 2.1 fold
Fold change in IC50 (Table 12, V052955, genotype 33F + 71V + 90M): 2.7 fold
Fold change in IC50 (Table 12, V052977, genotype 10I + 33F + 54M): 12.2 fold
Fold change in IC50 (Table 12, V052978, genotype 10I + 33F + 54M + 71V + 90M): 19.3 fold
Fold change in IC50 (Table 12, V052979, genotype 10I + 54M): 10.4 fold
Fold change in IC50 (Table 12, V052980, genotype 10I + 54M + 90M): 1.4 fold
Fold change in IC50 (Table 12, V052981, genotype 10I + 54M + 71V + 90M): 8.9 fold
Fold change in IC50 (Table 12, V052982, genotype 10I + 54M + 71V + 77I + 90M): 3.1 fold
Fold change in IC50 (Table 12, V053832, genotype 10I + 33F): 0.6 fold
